Measurements taken from US11033538B2, “Dosing regimens for the treatment of lysosomal storage diseases using pharmacological chaperones” (Amicus Therapeutics, Inc., priority 2007, dated 2021).

Tests used:
GL-3 [1] = experiment: Example 5, kidney GL-3 levels by electron microscopy; type: in vivo, human
Procedure: Eight patients in the study received an ascending dose of 25, 100, and then 250 mg b.i.d. over 6 weeks, followed by 50 mg/day for the remainder of the study.
Kidney GL-3 levels were assessed by an independent expert using electron microscopy.

GL-3 [2] = experiment: Example 6, kidney biopsy GL-3 histology; type: in vivo, human
Procedure: Four male patients received a single 150 mg Q.O.D for 12 weeks (Group B); while five male patients received 150 mg Q.O.D. for 24 weeks (Group C). Finally nine female patients were randomized to receive one of three dosages: 50, 150 or 250 mg Q.O.D for 12 weeks (Group D) (FIG. 8).
Kidney biopsies were performed at baseline, 12 weeks and 24 weeks post-treatment and evaluated for GL-3 deposits in various renal cells. GL-3 presence in the tissue was examined histologically as well as through the use of mass spectroscopy. Light microscopic analysis of kidney biopsies was performed, wherein the accumulation of GL-3 in the tissue was classified in a manner similar to the classification analysis performed in Kidney International, Vol. 62 (2002), pp. 1933-1946 which is hereby incorporated by reference. Cells were classified as containing no GL-3 accumulation (“0”); mild GL-3 accumulation (“1”); moderate GL-3 accumulation (“2”); or severe GL-3 accumulation (“3”).
Kidney GL-3 levels were assessed using histological and mass spectroscopic analysis. Kidney biopsies were examined in four of the “good” responders, two of the “moderate” responders, and two of the “non” responders. Accumulation of GL-3 was examined in three different kidney cell types: interstitial capillaries, distal tubules, and podocytes.

hR301Q GLA = target: T1, hR301Q GLA (Homo sapiens, UniProt P06280, R301Q); experiment: Example 13, half-life of elevated hR301Q GLA after DGJ withdrawal; type: in vivo, mice; conditions: after 4 weeks 100 mg/kg/day DGJ, washout; exponential decay curves
T1 construct: from tissue; host or cells: skin, heart, kidney lysates of hR301Q GLA Tg/KO mice
T1 sequence (P06280 32-429 R301Q): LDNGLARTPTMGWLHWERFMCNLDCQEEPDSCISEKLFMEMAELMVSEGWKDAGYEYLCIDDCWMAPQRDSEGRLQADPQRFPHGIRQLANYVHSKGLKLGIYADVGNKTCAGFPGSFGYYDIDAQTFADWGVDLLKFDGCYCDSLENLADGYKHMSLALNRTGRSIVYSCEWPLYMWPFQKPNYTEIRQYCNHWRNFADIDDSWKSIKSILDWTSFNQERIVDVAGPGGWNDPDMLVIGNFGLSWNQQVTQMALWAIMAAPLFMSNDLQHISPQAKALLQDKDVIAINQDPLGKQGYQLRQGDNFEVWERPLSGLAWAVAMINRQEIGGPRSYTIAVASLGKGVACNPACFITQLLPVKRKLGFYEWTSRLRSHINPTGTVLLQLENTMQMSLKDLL

GL-3 [3] = experiment: Example 15, qualitative GL-3 in glomerular cells; type: in vivo, human; conditions: 12 months of DGJ
Procedure: GL-3 changes in podocytes, endothelial cells, and mesangial cells, and glomerular sclerosis, were assessed qualitatively by the same 3 pathologists blinded to treatment/visit.

## OC[C@H]1NC[C@H](O)[C@@H](O)[C@H]1O [DGJ, (2R,3S,4R,5S)-2-(hydroxymethyl) piperdine-3,4,5-triol]
GL-3 [1]; both patients
  decrease of GL-3 levels in other kidney cell types including interstitial capillaries: less than 1 unit
GL-3 [1]; one patient, 12 weeks of treatment
  kidney GL-3 (mesangial cells, glomerular endothelium, distal tubules): observed decrease in GL-3 in multiple cell types of the kidney of one patient
GL-3 [1]; second patient, 24 weeks, not independently conclusive
  kidney GL-3 (same cell types): decrease of GL-3 levels in the same kidney cell types
GL-3 [2]; male good responders
  distal tubule GL-3 (histology): three of the good responders experienced a decrease in GL-3
  interstitial capillary GL-3 (histology): one patient displayed a decrease in interstitial capillary GL-3
  overall GL-3 levels in kidney biopsies: two of the good responders showed a decrease in GL-3
  podocyte GL-3 (histology): all four good responders experienced no change
GL-3 [2]; male moderate responders
  overall GL-3 levels in kidney biopsies: two patients showed a decrease in GL-3 levels
GL-3 [2]; male non-responders
  overall GL-3 levels in kidney biopsies: One non-responders showed a decrease in GL-3 levels
hR301Q GLA
  half-life of elevated tissue hR301Q GLA levels: 48 to 60 h
GL-3 [3]
  samples with increases in glomerular cell GL-3: None of the samples had increases
GL-3 [3]; 5 of 23 biopsies
  biopsies with decrease in glomerular podocyte GL-3: 22%
GL-3 [3]; 6 of 23 biopsies
  biopsies with decrease in endothelial cell GL-3: 26%
GL-3 [3]; 11 of 23 biopsies
  biopsies with decrease in mesangial cell GL-3: 48%
